US5994055A, “HIV trans-activator Tat binding to CDK7 and activation of CTD phosphorylation” (priority 1997, dated 1999)
Where no end group is shown, it is not given here. [ ]: non-standard residue; d: D form.

How the values were obtained:
[1] = molecular target: T1, recombinant CAK (CDK7, cyclin H, MAT1) (Homo sapiens, UniProt P50613); assay: Kinase reaction: phosphorylation of the CTD by recombinant CAK; format: biochemical
T1 construct: made in house; host or cells: Sf9 insect cells (baculovirus co-infection)
Description: Recombinant baculoviruses encoding human CDK7 (Fisher et al., Cell 78:713-724 (1994)), MAT1 (Fisher et al., Cell 83:47-57 (1995)), and an N-terminally 6-histidine tagged version of cyclin H (Kim et al., Cell 77:599-608 (1994)) were constructed as described. 4×10^9 Sf9 insect cells were co-infected with all three baculoviruses (multiplicity of infection for each virus: 5 pfu/cell), incubated 2 days at 28° C., and harvested by centrifugation. Cells were resuspended in 120 ml buffer A (20 mM Na phosphate, 25 mM NaCl, 1 mM PMSF, 1 Ag/ml leupeptin, 2 μg/ml aprotinin, 1 mM DTT (pH 7.4). NaCl concentration was raised to 300 mM and the lysate was clarified by centrifugation and loaded over tandem 5-ml Pharmacia HiTrap Chelating columns loaded with CoCl2 and preequilibrated with buffer B (300 mM NaCl, 20 mM Na phosphate, 10% glycerol (pH 7.2)). The column was washed with buffer B+1 mM DTT and eluted with a linear gradient of 0-200 mM imidazole in buffer B+1 mM DTT. Fractions containing the CAK trimer were pooled, diluted 4-fold in buffer C (20 mM Hepes-NaOH, 1 mM EDTA, 10% glycerol, 1 mM DTT (pH 7.4)), and loaded on a 5 ml Pharmacia HiTrap Q column pre-equilibrated with buffer C. The column was washed with buffer C and eluted with a linear gradient of 25-1000 mM NaCl in buffer C. […]

[2] = test system: Tat trans-activation of the HIV LTR; assay: In vitro run-off transcription from the wild-type HIV LTR; format: biochemical; conditions: increasing concentrations / concentration not stated
Description: The ability of molecules to inhibit Tat trans-activation can be assessed using a variety of in vitro and in vivo assays. For example, Tat trans-activation can be assessed using in vitro run-off transcription reactions with transcription extracts (see, e.g., Current Protocols in Molecular Biology (Ausubel et al., eds., 1997)). In such an assay, nuclear transcription extracts are prepared from cultured mammalian cells according to standard procedures (see, e.g., Dignam et al., Nuc. Acids. Res. 11: 1475-1489 (1983)). Recombinant Tat protein is isolated according to standard procedures and added to the nuclear transcription extract along with the other components of the transcription reaction such as nucleotides (see, e.g., Cujec et al., supra; Example V). The reaction is also supplied with HIV promoter DNA sequences operably linked to a structural gene.
Run-off transcription reactions from the wild-type HIV LTR and AdMLT promoters linearized with NcoI and HindIII respectively, were carried out as described (Okamoto et al., Proc. Natl. Acad. Sci. USA 93:11575-11579 (1996); Cujec et al., Mol. Cell. Biol. 17:1817-1823 (1997)). […]

DHFR promoter = assay: In vitro transcription from the DHFR promoter (G-less cassette); format: biochemical; conditions: concentration not given
Description: Run-off transcription reactions from the wild-type HIV LTR and AdMLT promoters linearized with NcoI and HindIII respectively, were carried out as described (Okamoto et al., Proc. Natl. Acad. Sci. USA 93:11575-11579 (1996); Cujec et al., Mol. Cell. Biol. 17:1817-1823 (1997)). Transcription reactions containing the DHFR promoter (500 ng) fused to a G-less cassette (linearized at Nco I) were supplemented with 3 mM (NH4)2 SO4, 2% PEG 8000, 50 units of T1 RNase (Boehringer-Mannheim), 500 U of RNase inhibitor (Boehringer-Mannheim) and contained 5 μM instead of 40 μM of unlabeled UTP. Phosphocreatine, poly (d)I-(d)C, and poly(rI-rC) were omitted from the reactions.

[3] = test system: Tat trans-activation of the HIV LTR in COS-7 cells; assay: Peptide electroporation into COS-7 cells with pHIVΔKBCAT reporter, RNase protection assay; format: cell-based

T1 sequence (P51946 whole entry): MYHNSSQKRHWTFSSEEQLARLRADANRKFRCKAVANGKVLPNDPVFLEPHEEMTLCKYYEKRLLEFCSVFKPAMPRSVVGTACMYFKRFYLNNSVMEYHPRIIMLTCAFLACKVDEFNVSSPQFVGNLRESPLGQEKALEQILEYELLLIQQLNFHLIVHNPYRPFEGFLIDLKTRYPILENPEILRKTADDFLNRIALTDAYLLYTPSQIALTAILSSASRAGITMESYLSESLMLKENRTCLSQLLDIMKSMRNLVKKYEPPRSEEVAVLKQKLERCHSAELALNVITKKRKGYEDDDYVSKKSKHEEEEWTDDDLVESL
T1 sequence (P50613 2-346): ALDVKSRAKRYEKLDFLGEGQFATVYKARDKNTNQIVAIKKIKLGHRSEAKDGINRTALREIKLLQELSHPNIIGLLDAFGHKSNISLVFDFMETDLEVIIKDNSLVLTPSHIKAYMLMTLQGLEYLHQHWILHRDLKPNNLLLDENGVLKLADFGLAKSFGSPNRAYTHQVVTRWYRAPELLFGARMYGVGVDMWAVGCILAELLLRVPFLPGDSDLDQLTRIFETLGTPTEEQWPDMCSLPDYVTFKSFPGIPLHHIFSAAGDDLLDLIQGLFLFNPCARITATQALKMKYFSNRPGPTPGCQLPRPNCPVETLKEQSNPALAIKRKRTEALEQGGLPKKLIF
T1 sequence (P51949 whole entry, further chain): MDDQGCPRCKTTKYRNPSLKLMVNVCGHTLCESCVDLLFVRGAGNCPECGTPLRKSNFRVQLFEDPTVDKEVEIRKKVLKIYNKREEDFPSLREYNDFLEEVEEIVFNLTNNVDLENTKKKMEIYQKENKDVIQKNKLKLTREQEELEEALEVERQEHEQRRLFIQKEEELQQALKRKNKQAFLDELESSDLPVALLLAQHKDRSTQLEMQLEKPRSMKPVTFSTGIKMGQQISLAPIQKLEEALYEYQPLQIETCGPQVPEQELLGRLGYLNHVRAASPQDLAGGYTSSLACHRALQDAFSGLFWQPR

## ARAFGVPVRTYAHEVVTLWYRA [mC2p]
[1]
  IC50: 1300 nM

## HARTVGVWYRAEYARFVTPaVV (HARTVGVWYRAEYARFVTP[dA]VV) [rC2p, control]
[1]; concentration not given
  effect on the kinase activity of CAK: no effect
[2]
  Tat trans-activation: did not affect
DHFR promoter
  transcription from the DHFR promoter: no effect
[3]; increasing concentrations, data not presented
  transcription in the absence of Tat: no effect
[3]; regardless of peptide concentration
  ratio of long to short transcripts: remained the same
